glass transition temperature [°C] | SMILES
110.00 | *CCCCCCCCCn1c(=O)c2cc3c(=O)n(*)c(=O)c3cc2c1=O (repeat unit)
107.20 | *CC(COc1ccc(C(C)(C)c2ccc(O*)cc2)cc1)OC(=O)/C=C/c1ccco1 (repeat unit)
76.00 | *O[Si](C)(C)c1cc(OCCOCc2ccccc2)c([Si](*)(C)C)cc1OCCOCc1ccccc1 (repeat unit)
253.00 | *c1ccc(Oc2ccc(C(=O)c3ccc(Oc4ccc(N5C(=O)c6ccc(-c7ccc8c(c7)C(=O)N(*)C8=O)cc6C5=O)cc4)cc3)cc2)cc1 (repeat unit)
167.00 | *Oc1ccc(Oc2ccc(C(=O)c3ccc(C(=O)c4ccc(*)cc4)cc3)cc2)cc1-c1ccc(S(=O)(=O)O)c(C)c1 (repeat unit)
-74.50 | *CCOCCOC(=O)CCCCCCCCC(=O)O* (repeat unit)
152.00 | *C(=O)c1ccc(C(=O)N(*)c2ccccc2)c(Sc2ccccc2)c1 (repeat unit)
176.00 | *Oc1ccc(C2(c3ccc(Oc4ccc(C(=O)Oc5c(C)cc(C(C)(C)c6cc(C)c(OC(=O)c7ccc(*)cc7)c(C)c6)cc5C)cc4)cc3)CCC(C(C)(C)C)CC2)cc1 (repeat unit)
163.00 | *Oc1c(Cl)cc(C2(c3cc(Cl)c(OC(*)=O)c(Cl)c3)CCCCC2)cc1Cl (repeat unit)
165.00 | *Oc1ccc(S(=O)c2ccc(Oc3ccc(C(C)(C)c4ccc(*)cc4)cc3)cc2)cc1 (repeat unit)
122.00 | *CCCCCCCCOc1cccc(NC(=O)c2ccc(C(=O)Nc3cccc(O*)c3)cc2)c1 (repeat unit)
53.00 | *Oc1ccc(CC(NC(=O)CCc2ccc(OC(=O)COCCOCC(*)=O)cc2)C(=O)OCC)cc1 (repeat unit)
211.00 | *C(=O)c1ccc2c(c1)C(=O)N(c1cccc(Oc3cccc(Oc4cccc(N5C(=O)c6ccc(*)cc6C5=O)c4)c3)c1)C2=O (repeat unit)
197.00 | *Oc1ccc(C2(c3ccc(OC(=O)c4ccc(Oc5ccc(C6(c7ccc(Oc8ccc(C(*)=O)cc8)cc7)CCC(C(C)(C)C)CC6)cc5)cc4)cc3)C3CC4CC(C3)CC2C4)cc1 (repeat unit)
228.00 | *c1ccc(CC(=O)Nc2cccc(NC(=O)Cc3ccc(-c4sc(*)c(-c5ccccc5)c4-c4ccccc4)cc3)c2)cc1 (repeat unit)
55.00 | */C=C/c1cccc(OC(=O)CCCCCCCCC(=O)Oc2ccc(-c3nnc(*)s3)cc2)c1 (repeat unit)
-27.00 | *O[Si](C)(CCC(F)(F)F)CCC(F)(F)C(F)(F)CC[Si](*)(C)CCC(F)(F)F (repeat unit)
290.00 | *c1ccc(Oc2ccc(S(=O)(=O)c3ccc(Oc4ccc(-c5c6c(c(*)c7ccccc57)C(=O)N(c5ccccc5C(F)(F)F)C6=O)cc4)cc3)cc2)cc1 (repeat unit)
342.00 | *c1ccc(N2C(=O)c3ccc(C(c4ccc5c(c4)C(=O)N(c4ccc(N6C(=O)c7ccc(-c8ccc9c(c8)C(=O)N(*)C9=O)cc7C6=O)cc4)C5=O)(C(F)(F)F)C(F)(F)F)cc3C2=O)cc1 (repeat unit)
245.00 | *c1ccc(Oc2ccc(NC(=O)c3ccc(C(=O)Nc4ccc(Oc5ccc(-c6nnc(*)o6)cc5)cc4)c(Oc4ccccc4)c3)cc2)cc1 (repeat unit)
198.00 | *Oc1ccc(S(=O)(=O)c2ccc(Oc3ccc(C(=O)c4cc(C(=O)c5ccc(*)cc5)cc(C(C)(C)C)c4)cc3)cc2)cc1 (repeat unit)
177.00 | *C(=O)Nc1ccc(Oc2ccc(C(C)(C)c3cccc(C(C)(C)c4ccc(Oc5ccc(N6C(=O)c7ccc(*)cc7C6=O)cc5)cc4)c3)cc2)cc1 (repeat unit)
78.00 | *CC(*)c1ccccc1COCCC(C)C (repeat unit)
-48.00 | *ON(C(F)(F)F)C(F)(F)C(*)(F)SC(F)(F)F (repeat unit)
179.00 | *Oc1ccc(C(c2ccccc2)c2ccc(OC(*)=S)cc2)cc1 (repeat unit)
68.00 | */C=C/c1cc(CCCCCCCCCC)c(/C=C/c2ccc(-c3ccc(*)nc3)cn2)cc1CCCCCCCCCC (repeat unit)
71.00 | *Oc1cccc(Oc2cccc(OC(*)=O)c2)c1 (repeat unit)
108.00 | *c1ccc(C(C#N)(C(=O)OCC)C(*)(C#N)C(=O)OCC)cc1 (repeat unit)

glass transition temperature [°C] | SMILES
87.00 | */C=C(\C#N)C(=O)OCCCCCCOC(=O)/C(C#N)=C/c1ccc2c(c1)c1cc(*)ccc1n2CCCCCCCCCCCOc1ccc(/C=C/c2ccc([N+](=O)[O-])cc2)cc1 (repeat unit)
194.00 | *CC(*)(C)C(=O)OC12CC3CC(C)(CC(C)(C3)C1)C2 (repeat unit)
243.00 | *Oc1ccc(NC(=O)c2cc(NC(=O)c3ccc(OC(C)=O)cc3)cc(C(=O)Nc3ccc(Oc4ccc(C(C)(C)c5ccc(*)cc5)cc4)cc3)c2)cc1 (repeat unit)
123.00 | *CCN(CCOC(=O)Nc1cccc(NC(=O)O*)c1C)c1ccc(/C=C/c2ccc([N+](=O)[O-])cc2)cc1 (repeat unit)
74.30 | *O[Si](*)(C)CCCCCCCCCCC(=O)Oc1ccc(C(=O)Oc2ccc(-c3ccc(OC(=O)c4ccc(OCC(C)CC)cc4)cc3)cc2)cc1 (repeat unit)
276.00 | *c1ccc2c(c1)C(=O)N(c1c(C)cc(Cc3cc(C)c(N4C(=O)c5ccc(C(*)(C(F)(F)F)C(F)(F)F)cc5C4=O)c(C(C)C)c3)cc1C(C)C)C2=O (repeat unit)
85.00 | *CC(*)(C)C(=O)OC(COc1ccc(-c2ccccc2)cc1)COc1ccc(-c2ccccc2)cc1 (repeat unit)
217.00 | *c1ccc(Oc2ccc(Oc3ccc(Oc4ccc(N5C(=O)C6CCC(C7CCC8C(=O)N(*)C(=O)C8C7)CC6C5=O)cc4)cc3)cc2)cc1 (repeat unit)
140.00 | *CCN(CCOC(=O)Nc1ccc(-c2ccc(NC(=O)O*)c(OC)c2)cc1OC)c1ccc(/N=N/c2ccc([N+](=O)[O-])cc2)cc1 (repeat unit)
77.00 | *CC(*)(C)C(=O)Oc1ccc(C(=O)Oc2ccc(OC)cc2)cc1 (repeat unit)
67.00 | *CC(*)C(=O)Oc1ccc(C(=O)OC)cc1 (repeat unit)
93.2 | *CCCCCCNC(=O)CCC(C)(C)c1ccc(C(C)(C)CCC(=O)N*)cc1 (repeat unit)
93.00 | *Oc1c(C)cc(C(C)(C)c2cc(C)c(OC(=O)CCCCC(*)=O)c(C)c2)cc1C (repeat unit)
110.00 | *CCCCCCCCNC(=O)Cc1ccc(CC(=O)N*)cc1 (repeat unit)
53.00 | *CC(*)C(=O)OCCCCCn1c2ccccc2c2ccccc21 (repeat unit)
125.00 | *c1cccc(OCCCCCCCCCCOc2cccc(N3C(=O)c4ccc(-c5ccc6c(c5)C(=O)N(*)C6=O)cc4C3=O)c2)c1 (repeat unit)
130.00 | *=Nc1ccc(Cc2ccc(NC(=*)CC)cc2)cc1 (repeat unit)
130.00 | *C(=O)OCC(COc1ccc(/N=N/c2ccc(C#N)cc2)cc1)OC(=O)c1ncccc1* (repeat unit)
234.00 | *C(=O)NNC(=O)c1ccc([Si](c2ccccc2)(c2ccccc2)c2ccc(C(=O)NNC(=O)c3cncc(*)c3)cc2)cc1 (repeat unit)
190.00 | *Oc1ccc(S(=O)(=O)c2ccc(Oc3ccc(C(C)(C)c4ccc(*)cc4)cc3[N+](=O)[O-])cc2)cc1 (repeat unit)
165.00 | *Oc1ccc(-c2ccc(OC(=O)OC3C(C)(C)C(OC(*)=O)C3(C)C)cc2)cc1 (repeat unit)
115.00 | *OC(=O)Oc1ccc(C(=O)Oc2ccc(OC(=O)OC3COC4C(*)COC34)cc2)cc1 (repeat unit)
60.00 | *O[Si](C)(C)c1ccc([Si](*)(C)C)c2ccccc12 (repeat unit)
74.00 | *CCCCCCCCCCCN1C(=O)c2ccc(Oc3ccc4c(c3)C(=O)N(*)C4=O)cc2C1=O (repeat unit)
73.00 | *CC(*)(C)C(=O)OCCCCCCn1c2ccccc2c2ccccc21 (repeat unit)
190.00 | *c1ccc(Oc2ccc(C(=O)c3ccc(Oc4ccc(C(=O)c5ccc(Oc6ccc(-c7cc(*)n(-c8ccccc8)n7)cc6)cc5)cc4)cc3)cc2)cc1 (repeat unit)
247.00 | *Oc1ccc2cc(Oc3ccc(C(=O)c4ccc(*)cc4)cc3)ccc2c1 (repeat unit)

SMILES | glass transition temperature [°C]
*O[Si](*)(C)CCCOCC1COC(=O)O1 (repeat unit) | -25.90
*CC(*)C(=O)OC(OCC)C(F)(F)F (repeat unit) | 5.00
*CC(=O)C(*)C (repeat unit) | 23.00
*CCCN(*)C(=O)c1ccccc1 (repeat unit) | 72.00
*CCCN(*)C(=O)CC (repeat unit) | 8.00
*CC(CC)O* (repeat unit) | -71.50
*CC(*)(C)C(=O)OCC#C (repeat unit) | 58.00
*CC(*)c1ccccc1C(=O)OCCC (repeat unit) | 108.00
*c1ccc2c(c1)C(=O)N(c1cccc(P(=O)(c3ccccc3)c3cccc(N4C(=O)c5ccc(C(*)(C(F)(F)F)C(F)(F)F)cc5C4=O)c3)c1)C2=O (repeat unit) | 271.00
*CC(F)(F)CC(*)(C(F)(F)F)C(F)(F)F (repeat unit) | 132.00
*C(F)(F)C(*)(F)c1ccccc1 (repeat unit) | 206.00
*CC(*)(C)C(=O)OCc1ccccc1Cl (repeat unit) | 54.10
*N=P(N=P(N=S(*)(=O)Nc1ccccc1)(Nc1ccccc1)Nc1ccccc1)(Nc1ccccc1)Nc1ccccc1 (repeat unit) | 82.00

Reference: the PolyMetriX glass transition set
